From paper PMC4109680, “Identification and Preclinical Pharmacology of the γ-Secretase Modulator BMS-869780” (International Journal of Alzheimer's Disease, 2014) come the findings set out here.

The subject of this assay is rat brain APP-CTFβ and APP-CTFα. Kind of assay: Immunoprecipitation and western blot of APP-CTFβ and APP-CTFα from rat brain. Conditions: oral doses 1.9-235 mg/kg, 24 hours. Type of assay: in vivo. The method, then: Rats were given oral doses of BMS-869780, and levels of brain Aβ, βCTF, and αCTF were determined 24 hours later. For comparison, BMS-698861 was dosed in a separate experiment and samples were taken 5 hours later. (a) Brain levels of Aβ1-42 (red), Aβ1-40 (green), Aβ1-38 (blue), and Aβ1-37 (purple) are shown as bars stacked upon one another. The total height of each bar therefore represents the sum of the four peptides. (b) Aβ1-42 (red—left Y axis) and Aβ1-x (grey—right Y axis). The same results for Aβ1-42 are plotted in both (a) and (b). (c) Rat brain βCTF was detected by western blotting of immunoprecipitates from samples of the same rat brains used for Aβ determinations. V, vehicle groups; results from rats dosed with 1.9, 22, 100, and 235 mg/kg of BMS-869780 and 10 mg/kg BMS-698861 (GSI) are indicated. (d) Western blots of immunoprecipitated αCTF from the same rat brain samples. (e) and (f) quantification of western blots shown in (c) and (d), respectively, expressed relative to percent of average level of CTF in vehicle-treated rats. Actual doses of BMS-869780 were determined by analysis of concentrations in left-over dosing solutions. […]
(In western blotting, separated proteins are transferred to a membrane and probed.)

Turning to `COc1cc(Nc2nc3n(n2)CCCC[C@H]3c2ccc(F)cc2)ccc1-n1cnc(Cl)c1` [BMS-869780], the “rat brain APP-CTFβ and APP-CTFα levels” value is “Neither APP-CTFβ nor APP-CTFα levels were affected”.
